From PubChem BioAssay AID252 (DTP/NCI, 2004)
Values joined by “and” are separate entries in the source; they are usually repeats but may differ in a detail not shown here. Identical values can stand only once. Toxic doses and inconclusive results are not listed.

Tested on: BDF1 mice, intracerebral L1210 leukemia, survival T/C
Test: NCI In Vivo Anticancer Drug Screen. Data for tumor model L1210 Leukemia (intracerebral) in B6D2F1 (BDF1) mice
Conditions: higher = longer survival
In short: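 Mice carrying transplanted tumour were dosed with compound; survival was recorded and expressed as treated-group value (T) divided by vehicle-control value (C).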

[1] = endpoint: mean survival time, dose: 31.0 mg/kg/injection, schedule: Q01DX001 (ip), vehicle: other
[2] = endpoint: mean survival time, dose: 24.0 mg/kg/injection, schedule: Q01DX001 (ip), vehicle: other

How did the T/C (endpoint: mean survival time, dose: 14.0 mg/kg/injection, schedule: Q01DX001 (ip), vehicle: other) turn out when CCOC(=O)[C@H]1CCC[C@@H](NC(=O)N(CCCl)N=O)C1 was run?
The T/C was 103 % of control.

What about the T/C (endpoint: mean survival time, dose: 21.0 mg/kg/injection, schedule: Q01DX001 (ip), vehicle: other) of the same compound?
Its T/C is 104 % of control.

And the T/C [1]?
Its T/C is 111 % of control.

And the T/C (endpoint: mean survival time, dose: 47.0 mg/kg/injection, schedule: Q01DX001 (ip), vehicle: other)?
Its T/C is 109 % of control.

Which T/C (endpoint: mean survival time, dose: 5.0 mg/kg/injection, schedule: Q01DX015 (ip), vehicle: alkali diluted with saline) does the source give for N#[N+]c1cnc([O-])[nH]c1=O here?
The T/C was 102 % of control.

And the T/C (endpoint: mean survival time, dose: 7.7 mg/kg/injection, schedule: Q01DX015 (ip), vehicle: alkali diluted with saline)?
The T/C was 101 % of control.

And the T/C (endpoint: mean survival time, dose: 11.5 mg/kg/injection, schedule: Q01DX015 (ip), vehicle: alkali diluted with saline)?
Its T/C is 106 % of control.

What about the T/C (endpoint: mean survival time, dose: 12.0 mg/kg/injection, schedule: Q01DX001 (ip), vehicle: alkali diluted with saline) of the same compound?
The T/C was 97 % of control.

And the T/C (endpoint: mean survival time, dose: 15.0 mg/kg/injection, schedule: Q01DX Z (ip), vehicle: alkali diluted with saline)?
The T/C was 101 % of control.

And the T/C (endpoint: mean survival time, dose: 19.0 mg/kg/injection, schedule: Q01DX001 (ip), vehicle: alkali diluted with saline)?
The T/C was 102 % of control.

What about the T/C (endpoint: mean survival time, dose: 20.0 mg/kg/injection, schedule: Q01DX Z (ip), vehicle: alkali diluted with saline) of the same compound?
Its T/C is 97 % of control.

And the T/C (endpoint: mean survival time, dose: 25.0 mg/kg/injection, schedule: Q01DX Z (ip), vehicle: alkali diluted with saline)?
The T/C was 92 % of control.

And the T/C (endpoint: mean survival time, dose: 29.0 mg/kg/injection, schedule: Q01DX001 (ip), vehicle: alkali diluted with saline)?
The T/C was 106 % of control.

What about the T/C (endpoint: mean survival time, dose: 40.0 mg/kg/injection, schedule: Q01DX Z (ip), vehicle: alkali diluted with saline) of the same compound?
The T/C was 91 % of control.

Which results are given for CCCCCCCCSc1ncnc2c1ncn2CC?
T/C (endpoint: mean survival time, dose: 62.0 mg/kg/injection, schedule: Q01DX015 (ip), vehicle: carboxymethylcellulose (CMC)): 97 % of control; T/C (endpoint: mean survival time, dose: 125.0 mg/kg/injection, schedule: Q01DX015 (ip), vehicle: carboxymethylcellulose (CMC)): 103 % of control; T/C (endpoint: mean survival time, dose: 250.0 mg/kg/injection, schedule: Q01DX015 (ip), vehicle: carboxymethylcellulose (CMC)): 116 % of control; T/C (endpoint: mean survival time, dose: 500.0 mg/kg/injection, schedule: Q01DX015 (ip), vehicle: carboxymethylcellulose (CMC)): 94 % of control

How did the T/C (endpoint: mean survival time, dose: 67.0 mg/kg/injection, schedule: Q01DX001 (ip), vehicle: carboxymethylcellulose (CMC)) turn out when CCN(N=O)C(N)=O was run?
The T/C was 97 % of control.

What about the T/C (endpoint: mean survival time, dose: 100.0 mg/kg/injection, schedule: Q01DX001 (ip), vehicle: carboxymethylcellulose (CMC)) of the same compound?
The T/C was 105 % of control.

What about the T/C (endpoint: mean survival time, dose: 150.0 mg/kg/injection, schedule: Q01DX001 (ip), vehicle: carboxymethylcellulose (CMC)) of the same compound?
Its T/C is 104 % of control.

What does the source list for O=C1C(NCCO)=C(N2CC2)C(=O)C(NCCO)=C1N1CC1?
T/C (endpoint: mean survival time, dose: 0.18 mg/kg/injection, schedule: Q01DX009 (ip), vehicle: saline): 108 % of control and 116 % of control; T/C (endpoint: mean survival time, dose: 0.37 mg/kg/injection, schedule: Q01DX009 (ip), vehicle: saline): 114 % of control; T/C (endpoint: mean survival time, dose: 1.5 mg/kg/injection, schedule: Q01DX009 (ip), vehicle: saline): 98 % of control

Which results are given for O=NN(CCCl)C(=O)Nc1ccc2ccccc2c1?
T/C (endpoint: mean survival time, dose: 137.0 mg/kg/injection, schedule: Q01DX001 (ip), vehicle: carboxymethylcellulose (CMC)): 115 % of control; T/C (endpoint: mean survival time, dose: 200.0 mg/kg/injection, schedule: Q01DX001 (ip), vehicle: carboxymethylcellulose (CMC)): 103 % of control; T/C (endpoint: mean survival time, dose: 300.0 mg/kg/injection, schedule: Q01DX001 (ip), vehicle: carboxymethylcellulose (CMC)): 108 % of control

Which results are given for CSCS(=O)C[C@H](CO)NC(=O)/C=C/c1c(C)[nH]c(=O)[nH]c1=O (stereo partly specified)?
T/C (endpoint: mean survival time, dose: 1.1 mg/kg/injection, schedule: Q01DX001 (ip), vehicle: carboxymethylcellulose (CMC)): 95 % of control; T/C (endpoint: mean survival time, dose: 1.7 mg/kg/injection, schedule: Q01DX001 (ip), vehicle: carboxymethylcellulose (CMC)): 101 % of control; T/C (endpoint: mean survival time, dose: 2.6 mg/kg/injection, schedule: Q01DX001 (ip), vehicle: carboxymethylcellulose (CMC)): 98 % of control

Which results are given for CC(=O)NC1=C(N2CC2C)C(=O)C(NC(C)=O)=C(N2CC2C)C1=O (stereo unspecified)?
T/C (endpoint: mean survival time, dose: 2.5 mg/kg/injection, schedule: Q01DX009 (ip), vehicle: saline with Tween-80): 118 % of control; T/C (endpoint: mean survival time, dose: 2.5 mg/kg/injection, schedule: Q01DX009 (ip), vehicle: saline): 111 % of control; T/C (endpoint: mean survival time, dose: 5.0 mg/kg/injection, schedule: Q01DX009 (ip), vehicle: saline with Tween-80): 120 % of control; T/C (endpoint: mean survival time, dose: 5.0 mg/kg/injection, schedule: Q01DX009 (ip), vehicle: saline): 114 % of control; T/C (endpoint: mean survival time, dose: 10.0 mg/kg/injection, schedule: Q01DX009 (ip), vehicle: saline with Tween-80): 94 % of control; T/C (endpoint: mean survival time, dose: 10.0 mg/kg/injection, schedule: Q01DX009 (ip), vehicle: saline): 97 % of control; T/C (endpoint: mean survival time, dose: 20.0 mg/kg/injection, schedule: Q01DX009 (ip), vehicle: saline with Tween-80): 88 % of control

How did the T/C (endpoint: mean survival time, dose: 3.7 mg/kg/injection, schedule: Q01DX001 (ip), vehicle: other) turn out when O=NN(CCF)C(=O)NC1CCSCC1 was run?
Its T/C is 114 % of control and 123 % of control.

And the T/C (endpoint: mean survival time, dose: 15.0 mg/kg/injection, schedule: Q01DX001 (ip), vehicle: other)?
Its T/C is 211 % of control and 223 % of control.

What about the T/C [2] of the same compound?
The T/C was 271 % of control.

What about the T/C [1] of the same compound?
The T/C was 460 % of control and 477 % of control.

And the T/C (endpoint: mean survival time, dose: 36.0 mg/kg/injection, schedule: Q01DX001 (ip), vehicle: other)?
The T/C was 276 % of control.

And the T/C (endpoint: mean survival time, dose: 54.0 mg/kg/injection, schedule: Q01DX001 (ip), vehicle: other)?
Its T/C is 303 % of control.

And the T/C (endpoint: mean survival time, dose: 62.0 mg/kg/injection, schedule: Q01DX001 (ip), vehicle: other)?
Its T/C is 380 % of control.

Which T/C (endpoint: mean survival time, dose: 8.0 mg/kg/injection, schedule: Q01DX001 (ip), vehicle: other) does the source give for CN(C)C(=O)c1ccc(NC(=O)N(CCCl)N=O)cc1 here?
The T/C was 110 % of control.

What about the T/C [2] of the same compound?
Its T/C is 121 % of control.

Which T/C (endpoint: mean survival time, dose: 8.0 mg/kg/injection, schedule: Q01DX009 (ip), vehicle: saline) does the source give for N[C@H](C(=O)O)[C@H]1ON=C(Cl)[C@@H]1O here?
The T/C was 109 % of control.

What about the T/C (endpoint: mean survival time, dose: 16.0 mg/kg/injection, schedule: Q01DX009 (ip), vehicle: saline) of the same compound?
Its T/C is 115 % of control.

And the T/C (endpoint: median survival time, dose: 256.0 mg/kg/injection, schedule: Q01DX009 (ip), vehicle: saline)?
The T/C was 123 % of control.

What about the T/C (endpoint: median survival time, dose: 512.0 mg/kg/injection, schedule: Q01DX009 (ip), vehicle: saline) of the same compound?
Its T/C is 111 % of control.

What about the T/C (endpoint: median survival time, dose: 1024.0 mg/kg/injection, schedule: Q01DX009 (ip), vehicle: saline) of the same compound?
Its T/C is 171 % of control.
